Results on ten molecules are retold here after US20260364184A1, “COMPOUND BASED ON OXOISOINDOLINYL-SUBSTITUTED TETRAHYDROPYRIMIDINE-DIONE AND USE THEREOF” (GLUETACS THERAPEUTICS (SHANGHAI) CO., LTD., priority 2023, published 2026).

Each structure is given as a SMILES string.

Assay [1] has as its target T1, CDK4 (Homo sapiens, UniProt P11802+Q96SW2).
T1 construct: expression of target proteins in cells; endogenous in cells
Briefly: Western blot degradation of CDK4. The assay is classed as cell-based. The following applies: MDA-MB-231 Cell; 24 hours. The procedure: (§1) Conventional Western blot assay was performed to evaluate the effects of the compounds of the present disclosure on the expression of target proteins in cells.
(§2) (1) Cell Seeding and Protein Harvesting: The selected cells were processed according to the cell seeding procedure and protein harvesting procedure in Table II-2.
(§3) (2) To the collected supernatant, 5×SDS sample loading buffer was added, followed by denaturation at 95 °C for 5 minutes. The denatured samples were then separated by SDS-PAGE electrophoresis on a polyacrylamide gel. Proteins were transferred to a nitrocellulose membrane (0.45 μm NC membrane), blocked with blocking buffer at room temperature for 1 hour, and subjected to antibody incubation and development procedures according to the antibody manufacturer's instructions (Cell Signaling Technology).
(§4) Half-Maximal Degradation Concentration value (the drug concentration required for degrading proteins by 50%, abbreviated as DC50) reads method: comparing the grayscale values of Western blot bands from drug-treated samples with those from blank DMSO-treated controls, and identifying the drug concentration range at which the grayscale value is half that of the DMSO-treated control bands.
(§5) DC50 values can be calculated using ImageJ software to measure grayscale values of Western blot bands from drug-treated samples. The concentration-response curve is fitted to estimate the drug concentration corresponding to half the grayscale value.
(§6) Target protein remaining (%) refers to the percentage of target protein remaining in cells after treatment with protein degrader compounds.
(§7) Calculation method for target protein remaining (%): Use ImageJ software to measure grayscale values of Western blot bands from drug (protein degrader)-treated samples. The grayscale value of drug-treated bands is divided by that of internal control protein bands, and the resulting quotient is normalized to obtain the relative percentage of remaining target protein after protein degrader treatment.
(§8) Target protein degradation rate (%)=1−target protein remaining (%).
In general terms: In western blotting, separated proteins are transferred to a membrane and probed.

Assay [2] has as its target T2, CDK6 (Homo sapiens, UniProt Q00534+Q96SW2).
T2 construct: expression of target proteins in cells; endogenous in cells
Put plainly: Western blot degradation of CDK6. The assay is classed as cell-based. The following applies: MDA-MB-231 Cell; 24 hours. As for the experimental part:
as §1, §2, §3, §4, §5, §6, §7, §8

Assay [3] concerns Human myeloid monocytic leukemia cell line (MV-4-11). Briefly: Inhibition of MV-4-11 cell proliferation (CellTiter luminescent viability). The assay is classed as cell-based. The following applies: Homo sapiens, MV4-11, Table IE3, CDK4/6 inhibitor-based, 96 hours. A digest of the protocol: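 Cells are seeded in 96-well plates, cultured at 37 °C, 5% CO2, and treated next day with 5-fold serial compound dilutions (stock series from 2000 μM; 0.5 μL into 100 μL medium). Viability is read by CellTiter-Meiluncell luminescence after the set exposure, and IC50 is taken from growth-inhibition curves.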

The target in assay [4] is T3, human Cereblon WT GST-tagged protein (CRBN) (Homo sapiens, UniProt Q96SW2).
T3 construct: purchased CISBIO 64BDCRBNPEH
Put plainly: CRBN binding by HTRF (Cereblon binding kit). A digest of the protocol:
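GST-tagged human Cereblon WT was incubated 3 h at room temperature with compound, thalidomide-Re tracer and Eu anti-GST antibody. Final compound concentrations were 10 to 0.00064 µM (7 points) or 2 and 0.5 µM. Inhibition rate was calculated from HTRF 665/620 nm ratios versus solvent and blank controls.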
A general note: In TR-FRET formats the signal depends on donor and acceptor labels being close together.

T2 sequence (Q00534 whole entry): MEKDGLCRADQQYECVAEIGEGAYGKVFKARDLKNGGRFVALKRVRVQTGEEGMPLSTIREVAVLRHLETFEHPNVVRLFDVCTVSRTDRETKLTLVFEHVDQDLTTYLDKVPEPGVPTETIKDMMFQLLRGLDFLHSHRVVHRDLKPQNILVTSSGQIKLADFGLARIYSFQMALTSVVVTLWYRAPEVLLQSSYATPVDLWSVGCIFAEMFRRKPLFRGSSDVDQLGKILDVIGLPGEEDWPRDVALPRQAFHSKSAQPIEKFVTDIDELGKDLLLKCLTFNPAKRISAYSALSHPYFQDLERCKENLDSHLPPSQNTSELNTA
T2 sequence (Q96SW2 whole entry): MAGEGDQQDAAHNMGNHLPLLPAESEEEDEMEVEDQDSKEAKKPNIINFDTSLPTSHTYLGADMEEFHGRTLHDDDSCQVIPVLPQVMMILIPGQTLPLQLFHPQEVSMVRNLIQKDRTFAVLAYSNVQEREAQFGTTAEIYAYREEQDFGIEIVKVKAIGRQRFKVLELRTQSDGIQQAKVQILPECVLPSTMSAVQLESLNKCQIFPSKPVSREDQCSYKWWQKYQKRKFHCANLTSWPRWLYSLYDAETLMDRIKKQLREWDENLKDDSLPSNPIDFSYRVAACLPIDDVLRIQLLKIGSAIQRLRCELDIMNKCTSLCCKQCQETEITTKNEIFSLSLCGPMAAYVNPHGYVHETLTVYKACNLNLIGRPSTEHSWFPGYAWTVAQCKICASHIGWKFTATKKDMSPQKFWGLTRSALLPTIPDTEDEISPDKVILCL
T2 sequence (Q16531 whole entry partner): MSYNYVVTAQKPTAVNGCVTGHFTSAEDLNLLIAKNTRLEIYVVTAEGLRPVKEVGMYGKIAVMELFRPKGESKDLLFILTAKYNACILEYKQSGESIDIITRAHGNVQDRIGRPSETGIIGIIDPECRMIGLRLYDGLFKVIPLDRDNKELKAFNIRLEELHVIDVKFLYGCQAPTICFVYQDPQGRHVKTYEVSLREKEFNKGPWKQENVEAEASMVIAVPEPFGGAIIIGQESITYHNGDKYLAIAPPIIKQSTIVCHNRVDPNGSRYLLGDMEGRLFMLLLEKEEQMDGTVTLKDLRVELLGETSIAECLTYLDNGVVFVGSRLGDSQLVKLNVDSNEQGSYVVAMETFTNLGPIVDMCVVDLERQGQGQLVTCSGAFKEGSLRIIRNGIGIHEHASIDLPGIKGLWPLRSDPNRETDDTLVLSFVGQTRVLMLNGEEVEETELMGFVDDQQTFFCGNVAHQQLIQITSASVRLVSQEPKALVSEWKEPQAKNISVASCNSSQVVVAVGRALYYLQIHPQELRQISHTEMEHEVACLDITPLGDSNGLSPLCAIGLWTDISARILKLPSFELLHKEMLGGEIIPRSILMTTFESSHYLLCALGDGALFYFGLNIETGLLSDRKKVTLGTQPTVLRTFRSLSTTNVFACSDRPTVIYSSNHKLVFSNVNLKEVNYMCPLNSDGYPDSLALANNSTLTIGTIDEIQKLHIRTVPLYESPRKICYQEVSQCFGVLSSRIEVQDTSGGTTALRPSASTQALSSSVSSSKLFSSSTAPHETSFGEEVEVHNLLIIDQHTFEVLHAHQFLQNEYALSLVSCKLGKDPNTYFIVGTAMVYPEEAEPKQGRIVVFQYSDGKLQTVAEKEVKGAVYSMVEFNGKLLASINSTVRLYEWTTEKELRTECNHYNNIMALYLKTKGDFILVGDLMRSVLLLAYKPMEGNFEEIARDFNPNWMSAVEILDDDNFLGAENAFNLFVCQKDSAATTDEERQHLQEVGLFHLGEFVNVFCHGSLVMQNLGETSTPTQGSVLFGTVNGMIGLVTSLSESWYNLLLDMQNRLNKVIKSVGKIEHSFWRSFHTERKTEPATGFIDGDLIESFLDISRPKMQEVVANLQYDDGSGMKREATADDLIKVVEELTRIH
T1 sequence (P11802 whole entry): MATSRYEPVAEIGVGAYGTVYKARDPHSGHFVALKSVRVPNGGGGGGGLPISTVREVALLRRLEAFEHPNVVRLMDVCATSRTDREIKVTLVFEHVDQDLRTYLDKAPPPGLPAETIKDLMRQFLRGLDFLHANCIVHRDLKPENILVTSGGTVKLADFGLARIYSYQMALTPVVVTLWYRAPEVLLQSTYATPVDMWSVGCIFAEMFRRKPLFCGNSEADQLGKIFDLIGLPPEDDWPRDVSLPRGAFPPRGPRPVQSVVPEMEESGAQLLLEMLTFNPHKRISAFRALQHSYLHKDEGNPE
T1 sequence (Q96SW2 whole entry): as the sequence (Q96SW2 whole entry) above
T1 sequence (Q16531 whole entry partner): as the sequence (Q16531 whole entry partner) above
T3 sequence (Q96SW2 whole entry): as the sequence (Q96SW2 whole entry) above

With `CN(C)C(=O)c1cc2cnc(Nc3ccc(N4CCC(CN5CC6CCC5CN6c5ccc6c(c5)C(=O)N(N5CCC(=O)NC5=O)C6=O)CC4)cn3)nc2n1C1CCCC1` (stereo not drawn) [GT-05831, 7-cyclopentyl-2-((5-(4-((5-(2-(2,4-dioxotetrahydropyrimidin-1(2H)-yl)-1,3-dioxoisoindolin-5-yl)-2,5-diazabicyclo[2.2.2]octan-2-yl)methyl)piperidin-1-yl)pyridin-2-yl)amino)-N,N-dimethyl-7H-pyrrolo[2,3-d]pyrimidine-6-carboxamide], the “Degradation of substrate protein CDK4 (substrate protein remaining %)” value in assay [1] is listed as “B (80%<substrate protein remaining %≤100%)”. Further, in assay [2], the “Degradation of substrate protein CDK6 (substrate protein remaining %)” value was “A (0%≤substrate protein remaining %≤80%)”.

As for `CN(C)C(=O)c1cc2cnc(Nc3ccc(N4CCN(Cc5ccc6c(c5)C(=O)N(N5CCC(=O)NC5=O)C6=O)CC4)cn3)nc2n1C1CCCC1` [GT-06336, 7-cyclopentyl-2-((5-(4-((2-(2,4-dioxotetrahydropyrimidin-1(2H)-yl)-1,3-dioxoisoindolin-5-yl)methyl)piperazin-1-yl)pyridin-2-yl)amino)-N,N-dimethyl-7H-pyrrolo[2,3-d]pyrimidine-6-carboxamide], in assay [1], the “Degradation of substrate protein CDK4 (substrate protein remaining %)” value is given as “A (0%≤substrate protein remaining %≤80%)”. In assay [2], the “Degradation of substrate protein CDK6 (substrate protein remaining %)” value is reported as “B (80%<substrate protein remaining %≤100%)”.

Take `CN(C)C(=O)c1cc2cnc(Nc3ccc(N4CCN(CC5CCN(c6ccc7c(c6)C(=O)N(N6CCC(=O)NC6=O)C7=O)CC5)CC4)cn3)nc2n1C1CCCC1` [GT-06337, 7-cyclopentyl-2-((5-(4-((1-(2-(2,4-dioxotetrahydropyrimidin-1(2H)-yl)-1,3-dioxoisoindolin-5-yl)piperidin-4-yl)methyl)piperazin-1-yl)pyridin-2-yl)amino)-N,N-dimethyl-7H-pyrrolo[2,3-d]pyrimidine-6-carboxamide]: the “Degradation of substrate protein CDK4 (substrate protein remaining %)” value in assay [1] is recorded as “B (80%<substrate protein remaining %≤100%)”. Besides, the “Degradation of substrate protein CDK6 (substrate protein remaining %)” value in assay [2] is recorded as “A (0%≤substrate protein remaining %≤80%)”.

`CN(C)C(=O)c1cc2cnc(Nc3ccc(N4CCC(N(C)Cc5ccc6c(c5)C(=O)N(N5CCC(=O)NC5=O)C6=O)CC4)cn3)nc2n1C1CCCC1` [GT-06488, 7-cyclopentyl-2-((5-(4-(((2-(2,4-dioxotetrahydropyrimidin-1(2H)-yl)-1,3-dioxoisoindolin-5-yl)methyl)(methyl)amino)piperidin-1-yl)pyridin-2-yl)amino)-N,N-dimethyl-7H-pyrrolo[2,3-d]pyrimidine-6-carboxamide]: in assay [1], the “Degradation of substrate protein CDK4 (substrate protein remaining %)” value was “B (80%<substrate protein remaining %≤100%)”. Further, the “Degradation of substrate protein CDK6 (substrate protein remaining %)” value in assay [2] is “A (0%≤substrate protein remaining %≤80%)”.

With `CN(C)C(=O)c1cc2cnc(Nc3ccc(N4CCC(N5CCN(Cc6ccc7c(c6)CN(N6CCC(=O)NC6=O)C7=O)CC5)CC4)cn3)nc2n1C1CCCC1` [GT-06497, 7-cyclopentyl-2-((5-(4-(4-((2-(2,4-dioxotetrahydropyrimidin-1(2H)-yl)-1-oxoisoindolin-5-yl)methyl)piperazin-1-yl)piperidin-1-yl)pyridin-2-yl)amino)-N,N-dimethyl-7H-pyrrolo[2,3-d]pyrimidine-6-carboxamide], the “Degradation of substrate protein CDK4 (substrate protein remaining %)” value in assay [1] was “A (0%≤substrate protein remaining %≤80%)”. In addition, in assay [2], the “Degradation of substrate protein CDK6 (substrate protein remaining %)” value was “A (0%≤substrate protein remaining %≤80%)”.

`CN(C)C(=O)c1cc2cnc(Nc3ccc(N4CCC(N5CCN(Cc6ccc7c(c6)C(=O)N(N6CCC(=O)NC6=O)C7=O)CC5)CC4)cn3)nc2n1C1CCCC1` [GT-06498, 7-cyclopentyl-2-((5-(4-(4-((2-(2,4-dioxotetrahydropyrimidin-1(2H)-yl)-1,3-dioxoisoindolin-5-yl)methyl)piperazin-1-yl)piperidin-1-yl)pyridin-2-yl)amino)-N,N-dimethyl-7H-pyrrolo[2,3-d]pyrimidine-6-carboxamide]: in assay [1], the “Degradation of substrate protein CDK4 (substrate protein remaining %)” value is given as “A (0%≤substrate protein remaining %≤80%)”. The “Degradation of substrate protein CDK6 (substrate protein remaining %)” value in assay [2] is on record as “A (0%≤substrate protein remaining %≤80%)”.

As a reminder, the inhibition is the relative decrease from the control value, in per cent. As for `CC(=O)c1c(C)c2cnc(Nc3ccc(N4CCC(N(C)Cc5ccc6c(c5)CN(N5CCC(=O)NC5=O)C6=O)CC4)cn3)nc2n(C2CCCC2)c1=O` [GT-06586, 1-(5-(((1-(6-((6-acetyl-8-cyclopentyl-5-methyl-7-oxo-7,8-dihydropyrido[2,3-d]pyrimidin-2-yl)amino)pyridin-3-yl)piperidin-4-yl)(methyl)amino)methyl)-1-oxoisoindolin-2-yl)dihydropyrimidine-2,4 (1H,3H)-dione], the inhibition at 0.01 µM in assay [3] (MV-4-11, 10 nM, read-out: Inhibition Rate at 10 nM (%)) was 25 to 30%. In assay [3] (MV-4-11, 500 nM, read-out: Inhibition Rate at 500 nM (%)), the inhibition at 0.5 µM is 40 to 60%. In addition, the “Degradation of substrate protein CDK4 (substrate protein remaining %)” value in assay [1] is “A (0%≤substrate protein remaining %≤80%)”. In addition, in assay [2], the “Degradation of substrate protein CDK6 (substrate protein remaining %)” value is “A (0%≤substrate protein remaining %≤80%)”.

With `Cc1nc2c(F)cc(-c3nc(Nc4ccc(CN5CCN(CC6CCN(c7ccc8c(c7)C(=O)N(N7CCC(=O)NC7=O)C8=O)CC6)CC5)cn4)ncc3F)cc2n1C(C)C` [GT-06662, 2-(2,4-dioxotetrahydropyrimidin-1(2H)-yl)-5-(4-((4-((6-((5-fluoro-4-(4-fluoro-1-isopropyl-2-methyl-1H-benzo[d]imidazol-6-yl)pyrimidin-2-yl)amino)pyridin-3-yl)methyl)piperazin-1-yl)methyl)piperidin-1-yl)isoindoline-1,3-dione], the “Degradation of substrate protein CDK4 (substrate protein remaining %)” value in assay [1] is listed as “B (80%<substrate protein remaining %≤100%)”. For the same molecule, in assay [2], the “Degradation of substrate protein CDK6 (substrate protein remaining %)” value is reported as “A (0%≤substrate protein remaining %≤80%)”. Further, the inhibition at 0.5 µM in assay [4] (0.5 μM, read-out: Inhibition Rate at 0.5 μM (%)) lay in the range of 30 to 40%. In addition, the inhibition at 2 µM in assay [4] (2 μM, read-out: Inhibition Rate at 2 μM (%)) was 53 to 60%.

Consider `Cc1nc2c(F)cc(-c3nc(Nc4ccc(N5CCN(Cc6ccc7c(c6)C(=O)N(N6CCC(=O)NC6=O)C7=O)CC5)cn4)ncc3F)cc2n1C(C)C` [GT-06673, 2-(2,4-dioxotetrahydropyrimidin-1(2H)-yl)-5-((4-(6-((5-fluoro-4-(4-fluoro-1-isopropyl-2-methyl-1H-benzo[d]imidazol-6-yl)pyrimidin-2-yl)amino)pyridin-3-yl)piperazin-1-yl)methyl)isoindoline-1,3-dione], for which, in assay [1], the “Degradation of substrate protein CDK4 (substrate protein remaining %)” value was “B (80%<substrate protein remaining %≤100%)”. In addition, the “Degradation of substrate protein CDK6 (substrate protein remaining %)” value in assay [2] is “A (0%≤substrate protein remaining %≤80%)”.

For the molecule `Cc1nc2c(F)cc(-c3nc(Nc4ccc(N5CCC(N(C)Cc6ccc7c(c6)C(=O)N(N6CCC(=O)NC6=O)C7=O)CC5)cn4)ncc3F)cc2n1C(C)C` [GT-06732, 2-(2,4-dioxotetrahydropyrimidin-1(2H)-yl)-5-(((1-(6-((5-fluoro-4-(4-fluoro-1-isopropyl-2-methyl-1H-benzo[d]imidazol-6-yl)pyrimidin-2-yl)amino)pyridin-3-yl)piperidin-4-yl)(methyl)amino)methyl)isoindoline-1,3-dione], in assay [1], the “Degradation of substrate protein CDK4 (substrate protein remaining %)” value was “B (80%<substrate protein remaining %≤100%)”. Further, the “Degradation of substrate protein CDK6 (substrate protein remaining %)” value in assay [2] was “A (0%≤substrate protein remaining %≤80%)”.
